This is an account of results in patent US20140314788A1, “MODULATION OF HISTONE DEACETYLASES FOR THE TREATMENT OF METABOLIC DISEASE, METHODS AND COMPOSITIONS RELATED THERETO” (Salk Institute for Biological Studies, priority 2010, published 2014).

Entries after “also recorded” stand apart in the source; their conditions may differ.

Experiment [1] concerns HDAC4/5/7. In words: Immunoblot of HDAC phosphorylation in primary hepatocytes treated with A769662. Conditions: 1 hr, particularly on the Ser498 sites. It is filed as cell-based, mouse. How it is done:
(F) Lysates from primary hepatocytes treated with either AMPK agonist A769662 or Vehicle (DMSO) for 1 hr and immunoblotted with indicated antibodies.
(§1) Primary hepatocytes were derived from C57BL/6J mice and maintained in serum free Media 199. Cells were transduced 24 hrs after harvesting. Knock-down and over-expression studies in hepatocytes were done by infecting cells at 5 PFUs/cell. All adenoviral shRNA knockdowns were carried out for 72 hrs. For subcellular fractionation, cells were treated as indicated, washed 3 times with PBS and lysed utilizing NE-PER Cell Fractionation Kit (Pierce). Primary hepatocytes were treated with 10 uM Forksolin (Sigma) and 100 nM Glucagon (Novo Nordisk), 100 nM insulin (Lilly) at indicated times.

In a further experiment the test system is G6PAse and PEPCK mRNA. Kind of experiment: qPCR of G6PAse and PEPCK mRNA in primary hepatocytes pre-treated with MC1568. It is filed as cell-based, mouse. Conditions: 5 uM MC1568 for 14 hours, then 10 uM Forskolin or 100 nM Glucagon for 4 hrs; normalized to cyclophilin. How it is done:
(§2) Blood glucose was measured on mice fasted for 22 hours (4 hrs following the final treatment).
as §1
mRNA from primary hepatocytes was isolated using RNAeasy (Qiagen) kit and reverse transcribed using SuperScript II Reverse Transcriptase. Three samples/mice were used per condition and qPCR was done in technical triplicate for each sample. qPCR reaction was carried out using Syber GreenER (Invitrogen). All qPCR results are representative of 3 separate experiments.
In general terms: In qPCR the cycle at which signal appears reflects the starting amount.

The subject of the next experiment is db/db mice. Kind of experiment: Blood glucose in db/db mice treated with MC1568. Conditions: 50 mg/kg intraperitoneally once a day for 4 days, fasted for 22 hours (4 hrs after final treatment). Type of experiment: in vivo, mouse. How it is done: as §2
Experiment [2] has as its system HDAC4/5/7. Kind of experiment: Immunoblot of HDAC phosphorylation in livers of metformin-treated mice. Conditions: mouse liver, 250 mg/kg metformin intraperitoneally for 1 h. Type of experiment: in vivo. Background: Immunoblotting shows a protein as a band on a membrane.
Description: (D) Immunoblot of lysates from murine livers from LKB1+/+ or LKB1lox/lox mice deleted for hepatic LKB1 and treated with either 250 mg/kg metformin, or saline alone for 1 h.
To induce Cre-mediated deletion in Albumin-creERT2 mice, mice were intraperitoneally injected with 1 mg/mouse of Tamoxifen (SIGMA) for 5 consecutive days. Ad-Cre mediated deletion in LBK1lox/lox mice was done by tail vein injection of 1×10^9 PFUs/mouse in 8 week old males (FIG. 1D). […] For metformin experiments, mice injected intraperitoneally with 250 mg/kg Metformin in 0.9% saline for 1 h.
In a further experiment the test system is HDACs4/5. In words: Immunoblot of HDAC phosphorylation in HepG2 or Huh7 cells treated with phenformin. Conditions: 2 mM Phenformin for 1 hr. It is filed as cell-based, human. How it is done: (C) Lysates of HepG2 or Huh7 cells transfected with indicated siRNA pools and treated with either 2 mM Phenformin or vehicle for 1 hr and subjected to immunoblotting.
(§3) HEK293T, Huh7, HepG2, C2C12, and U2OS cells were obtained from ATCC. RNAi SMARTpool human LKB1 (Dharmacon) or RNAi negative control (Invitrogen) used at 20 nM final concentration and transfected using RNAiMAX transfection reagent (Invitrogen). Knockdowns were carried out for 72 hrs. Cells were treated with 1 uM TSA or 10 mM NAM (Sigma), Cells were treated with 2 mM AICAR (Toronto Research Chemicals) or 2 mM Phenformin (Sigma).

In another experiment the test system is FOXO1. In words: FOXO1 acetylation immunoblot in HEK293T cells treated with TSA. Type of experiment: cell-based. Conditions: HEK293T cells with Myc-Foxo1 WT, 1 uM TSA for 2 h. How it is done: (C) HEK293T cells were transfected with Myc-Foxo1 WT construct and cells were treated with 1 uM TSA and/or 10 mM NAM for 2 h. Cell lysates were immunoblotted with indicated antibodies.
as §3

In experiment [3] the test system is HDAC4/5/7. Kind of experiment: Immunoblot of HDAC phosphorylation in liver lysates of glucagon-injected mice. It is filed as in vivo, mouse. Conditions: mice starved 6 h, glucagon for 45 minutes. How it is done:
(A) Mice were starved for 6 h and then treated with saline, glucagon (Gluca) for 45 minutes, or refed for 3 h. Liver lysates were immunoblotted with indicated antibodies.

For experiment [4], the system named is HDAC4/5/7. In words: Immunoblot of HDAC phosphorylation in primary mouse hepatocytes treated with glucagon or forskolin. Type of experiment: cell-based. Conditions: 100 nM glucagon or 10 uM forskolin.
For the next experiment, the system named is GFP-HDAC5. In words: GFP-HDAC5 nuclear translocation in primary mouse hepatocytes (confocal microscopy). Type of experiment: cell-based. Conditions: 100 nM glucagon.
The subject of experiment [5] is endogenous Class IIa HDACs. In words: Subcellular fractionation of primary hepatocytes. Type of experiment: cell-based, mouse. Conditions: 100 nM Glucagon or 10 uM Forskolin for 1 h.

For the compound `N#Cc1c(O)c2c(-c3ccc(-c4ccccc4O)cc3)csc2[nH]c1=O` [A769662], the HDAC4/5/7 phosphorylation result with HDAC4/5/7 [1] was “increased HDAC4/5/7 phosphorylation”. As to `Cn1c(/C=C/C(=O)NO)ccc1/C=C/C(=O)c1cccc(F)c1` [MC1568], in the experiment with G6PAse and PEPCK mRNA, the “expression of G6PAse (mRNA, qPCR)” value is on record as “suppresses the expression; also recorded: suppression” and the “expression of PEPCK (mRNA, qPCR)” value is “suppresses the expression; also recorded: suppression”. Besides, in the experiment with db/db mice, the blood glucose result is “lowers blood glucose; also recorded: suppression”. Take `CN(C)C(=N)N=C(N)N` [metformin]: the “Phospho-Ser498 in HDAC4/5/7” value with HDAC4/5/7 [2] is listed as “increase in Phospho-Ser498”.

Regarding `[H]/N=C(/N)N/C(=N/[H])NCCc1ccccc1` [phenformin], the “phosphorylation on Ser498 of HDACs4/5” value in the experiment with HDACs4/5 is on record as “LKB1-dependent increase in phosphorylation”. `CC(/C=C/C(=O)NO)=C\[C@@H](C)C(=O)c1ccc(N(C)C)cc1` [trichostatin A]: the FOXO1 acetylation result with FOXO1 is given as “increased FOXO1 acetylation”.

Take glucagon: the “HDAC4/5/7 phosphorylation in liver” value in the experiment on HDAC4/5/7 [3] is recorded as “reduced HDAC4/5/7 phosphorylation”. The “endogenous HDAC4/5/7 phosphorylation” value in the experiment with HDAC4/5/7 [4] was “rapid loss of endogenous HDAC4/5/7 phosphorylation”. Further, the “time to full nuclear translocation of GFP-tagged HDAC5” value in the experiment on GFP-HDAC5 was ≤ 30 min. In experiment [5], the “localization of endogenous Class IIa HDACs” value is reported as “translocate fully into the nucleus”.
